In US10344279B2, “Methods for the prevention and the treatment of extracapillary glomerulonephritis” (INSERM (Institut National de la Sante et de la Recherche …, priority 2014, dated 2019):

How the values were obtained:
[1] = system: phospho-STAT3 (Tyr705); assay: Western blot of phospho-STAT3 in glomeruli / kidney cortex of NTS-challenged mice; format: in vivo; settings: Stattic 25 mg/kg i.p. every other day, started with NTS; 129S2 mice; after 10 days of RPGN; vs vehicle
Method: Podocyte-specific disruption of Stat3 mice were generated by crossing podocin-Cre positive mice (63) with Stat3 floxed mice (64) on C57BL6/J background. Their age-matched littermates with no deletion of Stat3 in any cells are considered as controls. […] Stattic (25 mg/kg) was administered in i.p. way every other day for 10 days. 10 weeks old 129S2/SvPasCr male mice were randomly treated with Stattic and were compared to vehicle-treated (DMSO) littermates.
(§1) The glomerulonephritis was induced on male mice (10-12 weeks of age) by intravenous injection of 15 μL of sheep anti-glomerular basement membrane (GBM) nephrotoxic serum (NTS), which was diluted with 85 μL of sterile phosphate buffer solution. Serum injections were repeated twice (on days 2 and 3) at 6 μL/g of body weight and 7 μL/g respectively.
Mouse kidneys were extracted, minced, and digested in 2 mg/mL collagenase I solution (Gibco) in RPMI 1640 (Invitrogen) at 37° C. for 3 minutes, then filtered through a 70-μm cell strainer and one more through a 40-μm cell strainer. […] Podocyte outgrowth area was quantified at day 4 using ImageJ software.
(§2) After extraction from glomeruli or podocytes with lysis buffer, proteins were quantified by BCA protein assay kit (iNtRON Biotechnology). […] Protein loading was monitored by using the rat anti-tubulin antibody (Abeam). […] Densitometric analysis with ImageJ software was used for quantification.

[2] = system: miR-92a; assay: miR-92a expression in kidney / isolated glomeruli of NTS-challenged mice (in situ hybridization, RT-qPCR); format: in vivo
Method: as §1
For miRNA expression analysis, RNA from kidney cortex were prepared with Trizol (Life Technologies) according to manufacturer's instructions. miRNA expression was determined using Taqman miRNA assay (Life technologies) according to manufacturer's protocols. U6 snRNA was used as endogenous control.
In situ hybridization was performed as previously described by Bonaucr et al (66). Briefly, 5 μm-thick kidney paraffin embedded sections were cut and fixed in PFA 4% for 10 min. Then sections were washed with 1× PBS and then acetylated for 10 min. After washes, sections were incubated with […] (Sigma-Aldrich) for 10 min. at 37° C. After washings, sections were incubated with hybridization buffer for 5 h at room temperature. miRNA probes (miR-92a probe double-DIG labeled LNA probes, Exiqon, final concentration 20 nM) was mixed with denaturation buffer and added to the sections followed by incubation over night at 56° C. U6snRNA probe (3′-DIG labeled LAN, probe, Exiqon) was used at 10 nM final concentration and as a positive control. […]

[3] = system: miR-92a; assay: RT-qPCR for miR-92a in transfected primary podocytes; format: cell-based, mouse; settings: transfection with anti-miR-92a inhibitor (Ambion, 50 nM); normalized to U6
[4] = system: STAT3; assay: STAT3 protein level in anti-miR-92a transfected podocytes; format: cell-based, mouse; settings: data not shown
Method: Anti-miR-Control#1 was used as control (All from Ambion, 50 nM).

[5] = system: p57; assay: p57 protein expression in transfected podocytes (western blot, immunofluorescence); format: cell-based, mouse; settings: anti-miR-92a transfected podocytes
Method: (§3) Deparaffinized kidney sections were incubated for 30 minutes at 95° C. in the target retrieval solution (S1699, Dako), then in peroxidase blocking reagent (S2001, Dako), blocked in PBS containing 5% BSA and immunostained against phospho-STAT3 (Tyr705) (Cell Signaling Technology) and phospho-STAT3 (Tyr705) (Millipore), STAT3 (Cell Signaling Technology), podocalyxin (R&D systems), Ki-67 (Abeam) and p57 (Santa Cruz Technology). […] For STAT3 and podocalyxin immunofluorescence, primary antibody incubation was followed by a secondary rabbit anti-goat IgG AF488-conjugated antibody (Invitrogen, 1:400) and a secondary rabbit anti-goat IgG AF594-conjugated antibody (Invitrogen, 1:400) respectively. Podocyte culture cells were immunostained against podocin (ab50339 Abeam), nephrin (ab58968 Abeam), WTI (ab15249 Abeam) or p57 (Santa Cruz Biotechnology). The nuclei were stained using DAPI. Images were obtained with an Axioimager Z1 apotome (Zeiss).
as §2, with “Biotechnology). Samples were resolved on 4-12% Bis-Tris Criterion XT gels (Bio-Rad) then transferred to a polyvinylidene difloride membrane.” for “Biotechnology).”, “quantification. […]” for “quantification.”

[6] = system: p57; assay: p57 immunostaining on kidney sections of NTS-challenged mice; format: in vivo; settings: NTS-induced decrease; anti-miR-92a administration
Method: as §3
For preventive strategy, antagomiR treatment (12 mg/kg) started 3 days before NTS injection. AntagomiRs (VBC biotech, Vienna) were delivered by retro-orbital i.v. injections under brief anesthesia. Second and third injections were performed on days 1 and 3 with NTS injection. For curative strategy, antagomir were injected on days 4, 5 and 8 after NTS. A scramble antagomiR (Antagomir-Control) was used as control. […]

[7] = system: miR-17, miR-18a, miR-19a and miR-20a; assay: RT-qPCR of other miR-17-92 cluster members in isolated glomeruli of NTS-challenged mice; format: in vivo; settings: antagomiR 12 mg/kg i.v., preventive strategy; 10 days after NTS
Method: […] U6 snRNA was used as endogenous control.
For preventive strategy, antagomiR treatment (12 mg/kg) started 3 days before NTS injection. AntagomiRs (VBC biotech, Vienna) were delivered by retro-orbital i.v. injections under brief anesthesia. Second and third injections were performed on days 1 and 3 with NTS injection. For curative strategy, antagomir were injected on days 4, 5 and 8 after NTS. A scramble antagomiR (Antagomir-Control) was used as control. The sequences were obtained from previously published manuscript (66). In the miR-92 antagomir and control antagomir, the 2′O RNA base are methylated followed by first two bases and last 3 bases are phosphorothiated to increase the stability of antagomir from degradation. In addition, a cholesterol-TEG was added at the 3′ for easy entry of antagomir into the cells. AntagomiR-Control (SEQ ID NO: 7, anti-miR-ctrl): 5′-[…]-3′ and antagomiR-92a (SEQ ID NO: 8, anti-miR-92a): 5′-[…]-3′ as shown to be effective after in vivo administration in kidneys (34, 67). Saline-treated mice were used as control of the scramble antagomiR.

Compound: O=[N+]([O-])c1ccc2c(c1)S(=O)(=O)C=C2 [Stattic]
- STAT3 (Tyr705) phosphorylation in glomeruli [1]: significantly reduced
- MicroRNA-92a expression in kidney ([2]; NTS-challenged Pod-Stat3 WT animals treated with Stattic, in situ hybridization, confirmed by RT-qPCR): not increased

Compound: anti-miR-92a: 2′O-methylated, end-phosphorothioated antagomir with 3′ cholesterol-TEG, SEQ ID NO: 8, 5′-CAGGCCGGGACAAGUGCAAUA-3′ (VBC biotech) (listed as RNA, chemistry not fully specified)
- miR-92a expression in isolated glomeruli during RPGN ([2]; antagomiR 12 mg/kg i.v. retro-orbital, preventive strategy, 10 days after NTS): specific inhibition
- miR-92a expression in primary culture of podocytes, change [3]: −71%
- STAT3 protein level [4]: did not affect
- p57 expression [5]: increase
- p57 expression in glomeruli [6]: rescued
- levels of others miR of 17-92 cluster in isolated glomeruli [7]: without modify
